The term Ki denotes the equilibrium dissociation constant of an inhibitor or competing ligand from its target. The term IC50 denotes the concentration needed to halve the response being measured.

Our source for the pulmonary eosinophilia, Ki and IC50 values is US20100010034A1, “CRTH2 ANTAGONISTS” (priority 2006, published 2010).

The structures appear in SMILES notation.

For assay [1] the following is noted: rats, exogenously applied agonist (Shirashi et al 2005); cited from earlier work.
The target in assay [2] is T1, CRTH2 receptor (Homo sapiens, UniProt Q9Y5Y4).
T1 sequence (Q9Y5Y4 1-395): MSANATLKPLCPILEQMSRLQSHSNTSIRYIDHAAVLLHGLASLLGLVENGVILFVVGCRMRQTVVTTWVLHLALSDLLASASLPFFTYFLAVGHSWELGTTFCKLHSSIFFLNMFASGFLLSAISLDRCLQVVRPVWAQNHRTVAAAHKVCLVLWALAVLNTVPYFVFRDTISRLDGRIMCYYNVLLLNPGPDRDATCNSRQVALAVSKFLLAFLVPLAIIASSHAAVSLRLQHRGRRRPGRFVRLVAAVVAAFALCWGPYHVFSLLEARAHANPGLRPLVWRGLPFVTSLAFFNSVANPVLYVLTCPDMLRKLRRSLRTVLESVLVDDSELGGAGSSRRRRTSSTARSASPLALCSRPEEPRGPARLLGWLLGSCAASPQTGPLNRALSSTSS
The assay can be described thus: CRTH2 Radioligand Binding assay ([3H]-PGD2 displacement, SPA). Also on record: expressed in transfected cells; host or cells: HEK cell membranes. As to conditions: HEK cell membranes expressing the CRTH2 receptor, 1 nM [3H]-PGD2; Ki from IC50 by Cheng-Prusoff. As to the method: Radioligand Binding Assay
The receptor binding assay is performed in a final volume of 200 μL binding buffer [10 mM BES (pH 7.4), 1 mM EDTA, 10 mM manganese chloride, 0.01% BSA] and 1 nM [^3H]-PGD2 (Amersham Biosciences UK Ltd). Ligands are added in assay buffer containing a constant amount of DMSO (1% by volume). Total binding is determined using 1% by volume of DMSO in assay buffer and non-specific binding is determined using 10 μM of unlabeled PGD2 (Sigma). Human embryonic kidney (HEK) cell membranes (3.5 μg) expressing the CRTH2 receptor are incubated with 1.5 mg wheatgerm agglutinin SPA beads and 1 nM [^3H]-PGD2 (Amersham Biosciences UK Ltd) and the mixture incubated for 3 hours at room temperature. Bound [^3H]-PGD2 is detected using a Microbeta TRILUX liquid scintillation counter (Perkin Elmer). Compound IC50 value is determined using a 6-point dose response curve in duplicate with a semi-log compound dilution series. IC50 calculations are performed using Excel and XLfit (Microsoft), and this value is used to determine a Ki value for the test compound using the Cheng-Prusoff equation.

The target in assay [3] is T1, CRTH2 receptor. The assay can be described thus: Calcium mobilisation (flux) functional assay. The assay is classed as cell-based. Also on record: expressed in transfected cells. The conditions noted are these: CHO-K1 cells co-expressing CRTH2 receptor and Gα16; PGD2 agonist at EC80. As for the experimental part:
Calcium Mobilisation (Flux) Assay
Stable CHO-K1 cells co-expressing the CRTH2 receptor and the G-protein Gα16 are seeded (40,000 cells per well in a plating volume of 75 μL in F-12 Hams supplemented with 1% foetal bovine serum) into collagen-coated 96-well plates 24 hours prior to the assay. The cells are then loaded with a fluorescence-imaging plate reader (FLIPR) calcium kit dye (Calcium 3 kit, Molecular Devices Ltd) containing 5 mM final concentration of probenecid and incubated at 37° C. for 1 hour in a 5 % CO2 atmosphere. The fluorescence emission caused by intracellular calcium mobilization elicited by the PGD2 at the CRTH2 receptor is determined with a FLEXstation benchtop scanning and integrated fluid transfer workstation (Molecular Devices Ltd). To detect antagonists and determine compound IC50, compounds are pre-incubated at varying concentrations with the loaded cells for 15 minutes at 37° C., 5 % CO2, prior to the addition of the agonist at its EC80 value. Compounds and agonist are added in Hanks balanced salt solution containing 20 mM HEPES and 0.1% BSA). The fractional response values for each well are calculated by subtracting the basal response from the peak response. Results are calculated as the mean of triplicate wells using Excel and XLfit (Microsoft).

For `O=C(O)CCCCCCC1C(=O)NC(=O)N1CCC(O)C1CCCCC1` (stereo not drawn) [BW 245C], in assay [1], the pulmonary eosinophilia result is recorded as “no effect”.

`Cc1c(CC(=O)O)c2ccc(F)cn2c1Sc1ccc(Cl)cc1Cl` [Example 1, [3-(2,4dichlorophenylsulfanyl)-6-fluoro-2-methylindolizin-1-yl]acetic acid]: the Ki on CRTH2 receptor [2] was found to be 27 nM.

Consider `Cc1c(CC(=O)O)c2ccc(F)cn2c1Sc1ccc(S(C)(=O)=O)cc1F` [Example 2, [6-fluoro-3-(2-fluoro-4-methanesulfonylphenylsulfanyl)-2-methylindolizin-1-yl]acetic acid], for which, at CRTH2 receptor [3], the IC50 worked out at 6.6 nM. This molecule yielded an inhibition constant Ki on CRTH2 receptor [2] of 0.2 nM.

Consider `Cc1c(CC(=O)O)c2ccc(F)cn2c1Sc1ccc(S(C)(=O)=O)cc1C(F)(F)F` [Example 3, [6-fluoro-3-(4-methanesulfonyl-2-trifluoromethylphenylsulfanyl)-2-methylindolizin-1-yl]acetic acid], for which the half-maximal inhibitory concentration (IC50) on CRTH2 receptor [3] was determined as 11 nM. This molecule also showed a Ki at CRTH2 receptor [2] of 0.9 nM.

`Cc1c([C@@H](C)C(=O)O)c2ccc(F)cn2c1Sc1ccc(S(C)(=O)=O)cc1` [Example 4, (R)-2-[6-fluoro-3-(4-methanesulfonylphenylsulfanyl)-2-methylindolizin-1-yl]propionic acid] returned a Ki at CRTH2 receptor [2] of 29 nM.

Consider `CCS(=O)(=O)c1ccc(Sc2c(C)c(CC(=O)O)c3ccc(F)cn23)cc1` [Example 5, [3-(4-ethanesulfonylphenylsulfanyl)+fluoro-2-methylindolizin-1-yl]acetic acid], for which the IC50 on CRTH2 receptor [3] came to 8.9 nM. Also, the Ki on CRTH2 receptor [2] amounted to 0.8 nM.

On CRTH2 receptor [2], `Cc1c([C@H](C)C(=O)O)c2ccc(F)cn2c1Sc1ccc(S(C)(=O)=O)cc1` [Example 6, (S)-2-[6-fluoro-3-(4-methanesulfonylphenylsulfanyl)-2-methylindolizin-1-yl]propionic acid] gave a Ki of 57 nM.

With `CCS(=O)(=O)Nc1ccc(S(=O)(=O)c2c(C)c(CC(=O)O)c3ccc(F)cn23)cc1` [Example 7], the Ki at CRTH2 receptor [2] amounted to 47 nM.

The molecule `Cc1c(CC(=O)O)c2cc(Cl)c(F)cn2c1Sc1ccc(S(C)(=O)=O)cc1` [Example 8, [7-chloro-6-fluoro-3-(4-methanesulfonylphenylsulfanyl)-2-methylindolizin-1-yl]acetic acid] displayed a Ki at CRTH2 receptor [2] of 0.4 nM.

Regarding `Cc1c(CC(=O)O)c2cc(C#N)ccn2c1Sc1ccc(S(C)(=O)=O)cc1Cl` [Example 9, [3-(2-chloro-4-methanesulfonylphenylsulfanyl)-7-cyano-2-methylindolizin-1-yl]acetic acid], on CRTH2 receptor [2], the Ki worked out at 2.9 nM.

Regarding `Cc1c(CC(=O)O)c2ccc(C#N)cn2c1Cc1ccc(S(C)(=O)=O)cc1` [Example 10, [6-cyano-3-(4-methanesulfonylbenzyl)-2-methylindolizin-1-yl]acetic acid], the Ki at CRTH2 receptor [2] came to 1.7 nM.

`Cc1c(CC(=O)O)c2cc(C#N)ccn2c1Cc1ccc(Cl)cc1` [Example 11, [3-(4-chlorobenzyl)-7-cyano-2-methylindolizin-1-yl]acetic acid] showed a Ki at CRTH2 receptor [2] of 26 nM.

For `Cc1c(CC(=O)O)c2ccc(C#N)cn2c1Cc1ccc2cc(F)ccc2n1` [Example 12, [6-cyano-3-(6-fluoroquinolin-2-ylmethyl)-2-methylindolizin-1-yl]acetic acid], the Ki on CRTH2 receptor [2] amounted to 7.2 nM.

In the case of `COc1ccc(Sc2c(C)c(CC(=O)O)c3ccc(F)cn23)cc1` [Example 13, [6-fluoro-3-(4-methoxyphenylsulfanyl)-2-methylindolizin-1-yl]acetic acid], the Ki at CRTH2 receptor [2] amounted to 44 nM.

`COc1ccc(Sc2c(C)c(CC(=O)O)c3cc(Cl)c(F)cn23)cc1` [Example 14, [7-chloro-6-fluoro-3-(4-methoxyphenylsulfanyl)-2-methylindolizin-1-yl]acetic acid] had a Ki at CRTH2 receptor [2] of 23 nM.

Turning to `Cc1c(CC(=O)O)c2ccc(F)cn2c1Sc1ccc(S(=O)(=O)NC2CC2)cc1` [Example 16, [3-(4-cyclopropylsulfamoylphenylsulfanyl)-6-fluoro-2-methylindolizin-1-yl]acetic acid], at CRTH2 receptor [3], the IC50 amounted to 22 nM. At CRTH2 receptor [2], this molecule came in with a Ki of 0.6 nM.

Consider `O=C(O)CCC/C=C\C[C@@H]1[C@@H](/C=C/[C@@H](O)COc2ccc(I)cc2)[C@H]2CC[C@@H]1O2` [I-BOP], for which, in assay [1], the pulmonary eosinophilia result is “no effect”.
